Assay results as given in patent publication US6884805B2, “Polymorph forms of N-(2,3-dimethyl-5,6,7,8-tetrahydrofuro[2,3-B]quinolin-4-YL)-2-(2-oxopyrrolidin-1-YL)acetamide” (Mitsubishi Pharma Corporation, priority 2001, dated 2005).
Converted amounts (≈) assume the structure as drawn. “Also recorded” adds a separate entry of the source. Read-outs that look alike come from different tables or passages of the source.

Tests used:
Format in all cases: physicochemical
[1] = Crystal form stability at room temperature and during storage; details: for stability in storage: during storage (over time); for stability at room temperature compared with the other crystal form: room temperature (25° C.)
From the text: The form A crystal and the form B crystal of the present invention can be prepared with good reproducibility by using solvents safe for human bodies (e.g., pharmaceutically, pharmacologically, and/or physiologically acceptable). Therefore, it is far more useful as a pharmaceutical bulk or an active ingredient of a medicament.

[2] = Water solubility of saturated solutions measured by LC
Description: Saturated solutions of the form A crystals and the form B crystals were prepared at room temperature (25° C.). The concentrations of N-(2,3-dimethyl-5,6,7,8-tetrahydrofuro[2,3-b]quinolin-4-yl)-2-(2-oxopyrrolidin-1-yl)acetamide in each of the saturated solutions then was measured to obtain the water solubility of the form A and form B crystals.
About 20 mg of the form A crystal was weighed and put into separate tube with screwcap, then 10 mL of water were added, and the tube was capped. The tube was ultrasonicated for 5 minutes to suspend the sample. The tube then was shaken for 3 hours in an incubator, with the shaker setting at an appropriate temperature to obtain a saturated solution. The saturated solutions were filtrated using a Chromatodisk 25A (GL Science). 5 mL of the filtrate were measured, and 5 mL of the internal standard solutions (16 mg of isopropyl p-hydroxybenzoate were weighed, and 50% methanol was added to obtain 100 mL of an internal standard solutions) were added, and then 50% methanol was added to obtain 50 mL of sample solutions. 20 mg of each crystals were weighed, and then methanol was added to obtain 50 mL solutions. 5 mL of the aforementioned solutions were measured, and then 5 mL of the internal standard solutions were added, and then 50% of methanol was added to obtain 50 mL of the standard solutions. […]

[3] = Conversion of form B crystal to form A crystal in stirred water suspension; details: 0.5 g in 10 mL water, stirred 24 hours, confirmed by powder X-ray diffraction
Description: A suspension was prepared by adding 0.5 g of form B crystals of N-(2,3-dimethyl-5 ,6,7,8-tetrahydrofuro [2,3-b]quinolin-4-yl)-2-(2-oxopyrrolidin-1-yl)acetamide to 10 mL of water. […] The powder X-ray diffraction pattern of the resulting crystals was measured to confirm that the resulting crystals were form A crystals.

[4] = Solubility in the crystallization solvent (for the supersaturability calculation); details: aqueous with cosolvent or surfactant or cyclodextrin, about room temperature, read-out: solubility under the condition of crystallization
Description: The supersaturability of the form A crystals was calculated as follows: The supersaturability (calculation) is equal to the concentration of the dissolving N-(2,3-dimethyl-5,6,7,8-tetrahydrofuro[2,3-b]quinolin-4-yl)-2-(2-oxopyrrolidin-1-yl)acetamide divided by the solubility of N-(2,3-dimethyl-5,6,7,8-tetrahydrofuro[2,3-b]quinolin-4-yl)-2-(2-oxopyrrolidin-1-yl)acetamide under the condition of crystallization.
The solubility of N-(2,3-dimethyl-5,6,7,8-tetrahydrofuro[2,3-b]quinolin-4-yl)-2-(2-oxopyrrolidin-1-yl)acetamide under the condition of crystallization refers to the solubility of N-(2,3-dimethyl-5,6,7,8-tetrahydrofuro[2,3-b]quinolin-4-yl)-2-(2-oxopyrrolidin-1-yl)acetamide in the solvents used in crystallization at about room temperature.

| solubility (in words) ([2]; summary statement) | solubility compared with the form A crystal ([2]; water, at 25° C. and over a relatively wide temperature range (FIG. 4)) | crystal form after stirring a suspension in water [3] | stability at room temperature compared with the other crystal form ([1]; listed as form A) | solubility ([4]; 10% methanol) | solubility ([4]; 60% methanol) | SMILES | stability in storage [1] | stability at room temperature compared with the other crystal form [1] |
| --- | --- | --- | --- | --- | --- | --- | --- | --- |
| good solubility | higher | resulted in the form A crystals |  |  |  | Cc1oc2nc3c(c(NC(=O)CN4CCCC4=O)c2c1C)CCCC3 [form B crystal, N-(2,3-dimethyl-5,6,7,8-tetrahydrofuro[2,3-b]quinolin-4-yl)-2-(2-oxopyrrolidin-1-yl)acetamide] | worse stability | worse stability |
|  |  |  | more stable |  |  | Cc1oc2nc3c(c(NC(=O)CN4CCCC4=O)c2c1C)CCCC3 [form A crystal, N-(2,3-dimethyl-5,6,7,8-tetrahydrofuro[2,3-b]quinolin-4-yl)-2-(2-oxopyrrolidin-1-yl)acetamide] | good stability; also recorded: greater stability | extremely stable; also recorded: better stability |
|  |  |  |  | 0.41 mg/mL (≈ 1.2 mM) | 28.1 mg/mL (≈ 82.2 mM) | Cc1oc2nc3c(c(NC(=O)CN4CCCC4=O)c2c1C)CCCC3 [N-(2,3-dimethyl-5,6,7,8-tetrahydrofuro[2,3-b]quinolin-4-yl)-2-(2-oxopyrrolidin-1-yl)acetamide] |  |  |
